According to PubChem BioAssay (NCI):
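Where inhibition never reached the appropriate level, the endpoint shown equals the highest concentration tested. Otherwise, values were interpolated linearly from a five-concentration, 48-hour dose response in 96-well plates. TGI denotes the concentration required for complete inhibition of growth.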

Experiments:
Test in all cases: NCI anticancer screen, dose series, 48 h
U251 CNS = system: U251 CNS
HT29 colon = system: HT29 colon
UO-31 renal = system: UO-31 renal
ACHN renal = system: ACHN renal
UACC-62 melanoma = system: UACC-62 melanoma
SW-620 colon = system: SW-620 colon
DMS 114 small cell lung = system: DMS 114 small cell lung
UACC-257 melanoma = system: UACC-257 melanoma
RXF 393 renal = system: RXF 393 renal
HCT-15 colon = system: HCT-15 colon
MOLT-4 leukemia = system: MOLT-4 leukemia
SR leukemia = system: SR leukemia
CCRF-CEM leukemia = system: CCRF-CEM leukemia
SNB-75 CNS = system: SNB-75 CNS
HCC-2998 colon = system: HCC-2998 colon
K-562 leukemia = system: K-562 leukemia
SNB-78 CNS = system: SNB-78 CNS
LOX IMVI melanoma = system: LOX IMVI melanoma
786-0 renal = system: 786-0 renal
OVCAR-4 ovarian = system: OVCAR-4 ovarian
A549 NSCLC = system: A549 NSCLC
COLO 205 colon = system: COLO 205 colon
DLD-1 colon = system: DLD-1 colon
RPMI-8226 leukemia = system: RPMI-8226 leukemia
EKVX NSCLC = system: EKVX NSCLC
OVCAR-8 ovarian = system: OVCAR-8 ovarian
MALME-3M melanoma = system: MALME-3M melanoma
NCI-H226 lung = system: NCI-H226 lung
SNB-19 CNS = system: SNB-19 CNS
SK-OV-3 ovarian = system: SK-OV-3 ovarian
XF 498 CNS = system: XF 498 CNS
M14 melanoma = system: M14 melanoma
TK-10 renal = system: TK-10 renal
OVCAR-3 ovarian = system: OVCAR-3 ovarian
KM20L2 colon = system: KM20L2 colon
SF-295 CNS = system: SF-295 CNS
SK-MEL-28 melanoma = system: SK-MEL-28 melanoma
LXFL 529 NSCLC = system: LXFL 529 NSCLC
IGROV1 ovarian = system: IGROV1 ovarian
SN12C renal = system: SN12C renal
NCI-H460 lung = system: NCI-H460 lung
KM12 colon = system: KM12 colon
NCI-H23 lung = system: NCI-H23 lung
HOP-62 NSCLC = system: HOP-62 NSCLC
DMS 273 small cell lung = system: DMS 273 small cell lung
HCT-116 colon = system: HCT-116 colon
SK-MEL-5 melanoma = system: SK-MEL-5 melanoma
M19-MEL melanoma = system: M19-MEL melanoma
HOP-92 NSCLC = system: HOP-92 NSCLC
HL-60(TB) leukemia = system: HL-60(TB) leukemia
NCI-H522 lung = system: NCI-H522 lung
SK-MEL-2 melanoma = system: SK-MEL-2 melanoma
SF-268 CNS = system: SF-268 CNS
SF-539 CNS = system: SF-539 CNS
OVCAR-5 ovarian = system: OVCAR-5 ovarian

Measured: TGI

O=C(CCN1CCCC1)CC(c1ccccc1)c1c(O)c2ccccc2oc1=O (stereo not given)
94.8 µM: HOP-92 NSCLC
not listed: SF-539 CNS | OVCAR-5 ovarian
> 100 µM: all other assays above

COC(=O)[C@]12CSCN1C(=O)C(C(C)=O)=NN2C(=O)[C@](OC)(c1ccccc1)C(F)(F)F
not listed: UACC-257 melanoma | SR leukemia | CCRF-CEM leukemia | HCC-2998 colon | DLD-1 colon | SK-OV-3 ovarian | HOP-92 NSCLC | HL-60(TB) leukemia
> 100 µM: all other assays above
